Numbered stars: 1 amine (or outer) side, 2 acyl side, 3 side chain; on linkers, the order of the positions; unused ones are H or OH. Bridge positions count the residues as written; N and C are the ends. Square brackets hold non-standard residues; d marks the D form. Side chains are listed from the residue outwards. Peptide text beside a SMILES is read from it. * marks the point of attachment. Trp(1-CH2COOH) = N[C@@H](Cc1cn(CC(=O)O)c2ccccc12)C(=O)O; CH2CON(CH2CH2)2NCH2COOH = O=C(O)CN1CCN(C(=O)C*)CC1; NMePhe(4-COOH) = CN[C@@H](Cc1ccc(C(=O)O)cc1)C(=O)O; Nle(6-morpholino) = N[C@@H](CCCCN1CCOCC1)C(=O)O; Phe(3-COOH) = N[C@@H](Cc1cccc(C(=O)O)c1)C(=O)O; Trp(7-aza) = N[C@@H](Cc1c[nH]c2ncccc12)C(=O)O; NH(CH2CH2O)8Me = COCCOCCOCCOCCOCCOCCOCCOCCN*; NMePhe(3-Cl) = CN[C@@H](Cc1cccc(Cl)c1)C(=O)O; Piperazinyl(4-CH2COOH) = O=C(O)CN1CCN(*)CC1; 3Pal(6-NH2) = Nc1ccc(C[C@H](N)C(=O)O)cn1; NMeW = CN[C@@H](Cc1c[nH]c2ccccc12)C(=O)O; Tyr(3-Me) = Cc1cc(C[C@H](N)C(=O)O)ccc1O; NMeY = CN[C@@H](Cc1ccc(O)cc1)C(=O)O; Nva(3-Et) = CCC(CC)[C@H](N)C(=O)O; NMeF = CN[C@@H](Cc1ccccc1)C(=O)O; 4Pal = N[C@@H](Cc1ccncc1)C(=O)O; PEG4 = NCCOCCOCCOCCOCCC(=O)O; Carboxymethyl = O=C(O)C*; CO = O=C([*:1])[*:2]
Assays:
[1] = target: T1, human transferrin receptor (hTfR) (Homo sapiens, UniProt P02786); assay: SPR measurement under pH 7.4 conditions (Biacore T200, CM3 chip, hTfR captured by His Tag antibody); assay type: binding; details: read-out: hTfR SPR pH7.4 KD
[2] = target: T1, human transferrin receptor (hTfR); assay: SPR measurement under pH 6.0 conditions (Biacore T200, NTA chip, immobilized hTfR); assay type: binding; details: read-out: hTfR SPR pH6.0 KD
[3] = SPR, pH 7.4, peptide with the linker named in the table
[4] = SPR, pH 6.0, peptide with the linker named in the table

T1 sequence (P02786 whole entry): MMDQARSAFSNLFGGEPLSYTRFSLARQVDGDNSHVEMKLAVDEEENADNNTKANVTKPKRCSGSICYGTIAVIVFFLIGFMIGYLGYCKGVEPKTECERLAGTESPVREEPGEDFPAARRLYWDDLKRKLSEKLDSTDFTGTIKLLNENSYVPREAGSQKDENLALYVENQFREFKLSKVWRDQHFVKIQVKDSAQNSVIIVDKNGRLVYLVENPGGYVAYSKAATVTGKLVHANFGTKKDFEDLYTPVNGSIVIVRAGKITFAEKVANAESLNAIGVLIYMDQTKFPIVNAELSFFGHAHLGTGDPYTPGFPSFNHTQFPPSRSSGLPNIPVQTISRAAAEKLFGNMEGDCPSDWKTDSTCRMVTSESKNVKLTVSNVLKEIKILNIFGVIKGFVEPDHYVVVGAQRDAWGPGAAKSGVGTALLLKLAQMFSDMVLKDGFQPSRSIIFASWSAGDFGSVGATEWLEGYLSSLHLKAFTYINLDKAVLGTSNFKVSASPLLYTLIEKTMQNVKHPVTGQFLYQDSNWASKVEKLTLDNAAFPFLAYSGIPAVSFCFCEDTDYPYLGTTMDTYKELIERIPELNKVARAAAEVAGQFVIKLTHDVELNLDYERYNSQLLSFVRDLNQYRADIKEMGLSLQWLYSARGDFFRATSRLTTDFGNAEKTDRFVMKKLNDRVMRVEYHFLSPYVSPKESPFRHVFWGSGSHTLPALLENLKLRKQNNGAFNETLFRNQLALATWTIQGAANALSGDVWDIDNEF

SMILES | Kd ([1]; pH 7.4, single-cycle kinetics) | Kd ([2]; pH 6.0, single-cycle kinetics) | also measured
CCC(CC)[C@@H]1NC(=O)[C@H](Cc2ccc(O)cc2)NC(=O)[C@H](Cc2ccc(N)nc2)NC(=O)[C@H](CC(N)=O)NC(=O)[C@H](Cc2c[nH]c3ccccc23)N(C)C(=O)[C@H](C(C)C)NC(=O)[C@H](Cc2ccccc2)N(C)C(=O)[C@H](C(C)C)NC(=O)[C@H](C)NC(=O)CSC[C@@H](C(=O)NCCOCCOCCOCCOCCC(N)=O)NC(=O)[C@H](Cc2ccc(O)cc2)N(C)C(=O)[C@H](Cc2ccc(O)cc2)NC(=O)[C@H](CCCNC(=N)N)NC(=O)[C@H](CCCCN)NC(=O)[C@H]([C@@H](C)CC)NC1=O [compound 133] ({CH2CO}-AV[NMeF]V[NMeW]N[3Pal(6-NH2)]Y[Nva(3-Et)]IKRY[NMeY]C[PEG4]-NH2; thioether N-15) | – | – | Kd [1, 3]: 0.0165 µM; Kd [2, 4]: 0.0202 µM
CC[C@H](C)[C@@H]1NC(=O)[C@H](Cc2ccc(OCC(=O)N3CCN(CC(=O)O)CC3)cc2)NC(=O)[C@H](Cc2ccc(N)nc2)NC(=O)[C@H](CC(N)=O)NC(=O)[C@H](Cc2cn(CC(=O)O)c3ccccc23)NC(=O)[C@H](C(C)C)NC(=O)[C@H](Cc2cccc(Cl)c2)N(C)C(=O)[C@H](C(C)C)NC(=O)[C@H](C)NC(=O)CSC[C@@H](C(=O)NCCOCCOCCOCCOCCC(N)=O)NC(=O)[C@H](Cc2ccc(O)cc2)N(C)C(=O)[C@H](Cc2ccncc2)NC(=O)[C@H](CCCCN2CCOCC2)NC(=O)[C@H](CCCCNC(=O)N2CCN(CC(=O)O)CC2)NC(=O)[C@H]([C@@H](C)CC)NC1=O [compound 17] ({CH2CO}-AV[NMePhe(3-Cl)]V[Trp(1-CH2COOH)]N[3Pal(6-NH2)]Y(CH2CON(CH2CH2)2NCH2COOH)IIK([CO-Piperazinyl(4-CH2COOH)])[Nle(6-morpholino)][4Pal][NMeY]C[PEG4]-NH2; thioether N-15) | 0.00425 µM | 0.501 µM | –
CC[C@H](C)[C@@H]1NC(=O)[C@H](Cc2ccc(OCC(=O)N3CCN(CC(=O)O)CC3)cc2)NC(=O)[C@H](Cc2ccc(O)cc2)NC(=O)[C@H](CC(N)=O)NC(=O)[C@H](Cc2c[nH]c3ncccc23)NC(=O)[C@H](C(C)C)NC(=O)[C@H](Cc2cccc(Cl)c2)N(C)C(=O)[C@H](C(C)C)NC(=O)[C@H](C)NC(=O)CSC[C@@H](C(=O)NCCOCCOCCOCCOCCC(N)=O)NC(=O)[C@H](Cc2ccc(O)cc2)N(C)C(=O)[C@H](Cc2ccncc2)NC(=O)[C@H](CCCCN2CCOCC2)NC(=O)[C@H](CCCCNC(=O)N2CCN(CC(=O)O)CC2)NC(=O)[C@H]([C@@H](C)CC)NC1=O [compound 19] ({CH2CO}-AV[NMePhe(3-Cl)]V[Trp(7-aza)]NYY(CH2CON(CH2CH2)2NCH2COOH)IIK([CO-Piperazinyl(4-CH2COOH)])[Nle(6-morpholino)][4Pal][NMeY]C[PEG4]-NH2; thioether N-15) | 0.00482 µM | 0.00792 µM | –
CCC(CC)[C@@H]1NC(=O)[C@H](Cc2ccc(OCC(=O)O)cc2)NC(=O)[C@H](Cc2ccc(N)nc2)NC(=O)[C@H](CC(N)=O)NC(=O)[C@H](Cc2cn(CC(=O)O)c3ccccc23)NC(=O)[C@H](C(C)C)NC(=O)[C@H](Cc2cccc(Cl)c2)N(C)C(=O)[C@H](C(C)C)NC(=O)[C@H](C)NC(=O)CSC[C@@H](C(=O)NCCOCCOCCOCCOCCC(N)=O)NC(=O)[C@H](Cc2ccc(O)cc2)N(C)C(=O)[C@H](Cc2ccncc2)NC(=O)[C@H](CCCCN2CCOCC2)NC(=O)[C@H](CCC(N)=O)NC(=O)[C@H]([C@@H](C)CC)NC1=O [compound 47] ({CH2CO}-AV[NMePhe(3-Cl)]V[Trp(1-CH2COOH)]N[3Pal(6-NH2)]Y(Carboxymethyl)[Nva(3-Et)]IQ[Nle(6-morpholino)][4Pal][NMeY]C[PEG4]-NH2; thioether N-15) | 0.116 µM | 0.249 µM | –
CCC(CC)[C@@H]1NC(=O)[C@H](Cc2ccc(OCC(=O)O)cc2)NC(=O)[C@H](Cc2ccc(O)cc2)NC(=O)[C@H](CC(N)=O)NC(=O)[C@H](Cc2cn(CC(=O)O)c3ccccc23)NC(=O)[C@H](C(C)C)NC(=O)[C@H](Cc2cccc(Cl)c2)N(C)C(=O)[C@H](C(C)C)NC(=O)[C@H](C)NC(=O)CSC[C@@H](C(=O)NCCOCCOCCOCCOCCC(N)=O)NC(=O)[C@H](Cc2ccc(O)cc2)N(C)C(=O)[C@H](Cc2ccc(O)c(C)c2)NC(=O)[C@H](CCCNC(=N)N)NC(=O)[C@H](CCC(N)=O)NC(=O)[C@H]([C@@H](C)CC)NC1=O [compound 99] ({CH2CO}-AV[NMePhe(3-Cl)]V[Trp(1-CH2COOH)]NYY(Carboxymethyl)[Nva(3-Et)]IQR[Tyr(3-Me)][NMeY]C[PEG4]-NH2; thioether N-15) | – | – | Kd [1, 3]: 0.00908 µM; Kd [2, 4]: 0.0562 µM
CC[C@H](C)[C@@H]1NC(=O)[C@H](Cc2ccc(OC)cc2)NC(=O)[C@H](Cc2ccc(N)nc2)NC(=O)[C@H](CC(N)=O)NC(=O)[C@H](Cc2c[nH]c3ccccc23)NC(=O)[C@H](C(C)C)NC(=O)[C@H](Cc2cccc(Cl)c2)N(C)C(=O)[C@H](C(C)C)NC(=O)[C@H](C)NC(=O)CSC[C@@H](C(=O)NCC(=O)NCC(=O)NCC(=O)NCC(=O)N[C@@H](CO)C(=O)N[C@@H](CO)C(=O)N[C@@H](CCCCN=[N+]=[N-])C(N)=O)NC(=O)[C@H](Cc2ccc(O)cc2)N(C)C(=O)[C@H](Cc2ccncc2)NC(=O)[C@H](CCCNC(=N)N)NC(=O)[C@H](CCCNC(=N)N)NC(=O)[C@H]([C@@H](C)CC)NC1=O [compound 191] | – | – | Kd ([1]; SPR, pH 7.4, Table 1-3-2-2): 0.00089 µM; Kd ([2]; SPR, pH 6.0, Table 1-3-2-2): 0.00382 µM

Second part, led by results:

Kd ([1]; pH 7.4, single-cycle kinetics) | Kd ([2]; pH 6.0, single-cycle kinetics) | SMILES | also measured
0.00201 µM | 0.0267 µM | CC[C@H](C)[C@@H]1NC(=O)[C@H](Cc2ccc(OCC(=O)N3CCN(CC(=O)O)CC3)cc2)NC(=O)[C@H](Cc2ccc(O)cc2)NC(=O)[C@H](CC(N)=O)NC(=O)[C@H](Cc2c[nH]c3ncccc23)NC(=O)[C@H](C(C)C)NC(=O)[C@H](Cc2cccc(Cl)c2)N(C)C(=O)[C@H](C(C)C)NC(=O)[C@H](C)NC(=O)CSC[C@@H](C(=O)NCCOCCOCCOCCOCCC(N)=O)NC(=O)[C@H](Cc2ccc(O)cc2)N(C)C(=O)[C@H](Cc2cccc(C(=O)O)c2)NC(=O)[C@H](CCCCN2CCOCC2)NC(=O)[C@H](CCC(N)=O)NC(=O)[C@H]([C@@H](C)CC)NC1=O [compound 24] ({CH2CO}-AV[NMePhe(3-Cl)]V[Trp(7-aza)]NYY(CH2CON(CH2CH2)2NCH2COOH)IIQ[Nle(6-morpholino)][Phe(3-COOH)][NMeY]C[PEG4]-NH2; thioether N-15) | –
0.0755 µM | 0.869 µM | CCC(CC)[C@@H]1NC(=O)[C@H](Cc2ccc(OCC(=O)O)cc2)NC(=O)[C@H](Cc2ccc(N)nc2)NC(=O)[C@H](CC(N)=O)NC(=O)[C@H](Cc2c[nH]c3ncccc23)NC(=O)[C@H](C(C)C)NC(=O)[C@H](Cc2cccc(Cl)c2)N(C)C(=O)[C@H](C(C)C)NC(=O)[C@H](C)NC(=O)CSC[C@@H](C(=O)NCCOCCOCCOCCOCCC(N)=O)NC(=O)[C@H](Cc2ccc(C(=O)O)cc2)N(C)C(=O)[C@H](Cc2cccc(C(=O)O)c2)NC(=O)[C@H](CCCNC(=N)N)NC(=O)[C@H](CCC(N)=O)NC(=O)[C@H]([C@@H](C)CC)NC1=O [compound 45] ({CH2CO}-AV[NMePhe(3-Cl)]V[Trp(7-aza)]N[3Pal(6-NH2)]Y(Carboxymethyl)[Nva(3-Et)]IQR[Phe(3-COOH)][NMePhe(4-COOH)]C[PEG4]-NH2; thioether N-15) | –
0.000755 µM | 0.00471 µM | CC[C@H](C)[C@@H]1NC(=O)[C@H](Cc2ccc(OC)cc2)NC(=O)[C@H](Cc2ccc(N)nc2)NC(=O)[C@H](CC(N)=O)NC(=O)[C@H](Cc2c[nH]c3ccccc23)N(C)C(=O)[C@H](C(C)C)NC(=O)[C@H](Cc2cccc(Cl)c2)N(C)C(=O)[C@H](C(C)C)NC(=O)[C@H](C)NC(=O)CSC[C@@H](C(=O)NCCOCCOCCOCCOCCC(N)=O)NC(=O)[C@H](Cc2ccc(C(=O)O)cc2)N(C)C(=O)[C@H](Cc2ccncc2)NC(=O)[C@H](CCCNC(=N)N)NC(=O)[C@H](CCCCN)NC(=O)[C@H]([C@@H](C)CC)NC1=O [compound 60] ({CH2CO}-AV[NMePhe(3-Cl)]V[NMeW]N[3Pal(6-NH2)]Y(Me)IIKR[4Pal][NMePhe(4-COOH)]C[PEG4]-NH2; thioether N-15) | –
0.107 µM | 0.601 µM | CCC(CC)[C@@H]1NC(=O)[C@H](Cc2ccc(OCC(=O)O)cc2)NC(=O)[C@H](Cc2ccc(N)nc2)NC(=O)[C@H](CC(N)=O)NC(=O)[C@H](Cc2c[nH]c3ncccc23)NC(=O)[C@H](C(C)C)NC(=O)[C@H](Cc2cccc(Cl)c2)N(C)C(=O)[C@H](C(C)C)NC(=O)[C@H](C)NC(=O)CSC[C@@H](C(=O)NCCOCCOCCOCCOCCC(N)=O)NC(=O)[C@H](Cc2ccc(O)cc2)N(C)C(=O)[C@H](Cc2cccc(C(=O)O)c2)NC(=O)[C@H](CCCNC(=N)N)NC(=O)[C@H](CCC(=O)NCCOCCOCCOCCOCCOCCOCCOCCOC)NC(=O)[C@H]([C@@H](C)CC)NC1=O [compound 43] ({CH2CO}-AV[NMePhe(3-Cl)]V[Trp(7-aza)]N[3Pal(6-NH2)]Y(Carboxymethyl)[Nva(3-Et)]IE(NH(CH2CH2O)8Me)R[Phe(3-COOH)][NMeY]C[PEG4]-NH2; thioether N-15) | –
0.000888 µM | 0.0162 µM | CC[C@H](C)[C@@H]1NC(=O)[C@H](Cc2ccc(OC)cc2)NC(=O)[C@H](Cc2ccc(N)nc2)NC(=O)[C@H](CC(N)=O)NC(=O)[C@H](Cc2c[nH]c3ncccc23)NC(=O)[C@H](C(C)C)NC(=O)[C@H](Cc2cccc(Cl)c2)N(C)C(=O)[C@H](C(C)C)NC(=O)[C@H](C)NC(=O)CSC[C@@H](C(=O)NCCOCCOCCOCCOCCC(N)=O)NC(=O)[C@H](Cc2ccc(O)cc2)N(C)C(=O)[C@H](Cc2ccncc2)NC(=O)[C@H](CCCNC(=N)N)NC(=O)[C@H](CCCCN2CCOCC2)NC(=O)[C@H]([C@@H](C)CC)NC1=O [compound 2] ({CH2CO}-AV[NMePhe(3-Cl)]V[Trp(7-aza)]N[3Pal(6-NH2)]Y(Me)II[Nle(6-morpholino)]R[4Pal][NMeY]C[PEG4]-NH2; thioether N-15) | –

— patent publication EP4667483A1, “HUMAN TRANSFERRIN RECEPTOR-BINDING PEPTIDE” (JCR Pharmaceuticals Co., Ltd., priority 2023, dated 2024)
